Series [1] deals with Chinese hamster V79 cells. As to the kind of experiment: Colony formation assay, radio- and chemosensitization. It is filed as cell-based. As to the method: For hypoxia irradiation, cell cultures were placed in Aneropak Kenki system (Mitsubishi Gas Chemical, Tokyo, Japan) with oxygen meter to confirm pO2 below 0.1%. Cells were kept in hypoxia for 3 h before irradiation.
The target in the next series is Topo II alpha (Homo sapiens, UniProt P11388). As to the kind of experiment: Topoisomerase II alpha assay. The settings on record: kinetochore DNA, 37 °C, 30 min. It is filed as biochemical. The protocol: For topoisomerase (Topo) I assay, a mixture of 125 ng of supercoiled pHOT1 DNA, 1U of Topo I enzyme, and various concentrations of SQAP in 1 mM Tris-HCl (pH7.9), 0.1 mM EDTA, 0.015 M NaCl, 0.01% BSA, 0.01 mM Spermidine and 0.5% glycerol was incubated at 37 °C for 30 min. For Topo II alpha assay, a mixture of 10 µL containing of 50 ng of […] DNA in 0.05 M Tris-HCl (pH8), 1U of Topo II alpha, various concentrations of SQAP in 0.15 M NaCl, 10 mM MgCl2, 0.5mM DTT, 30 µg/mL of BSA, 2 mM ATP was incubated at 37 °C for 30 min. After the reaction was terminated, electrophoresis was conducted at 50 V for 3 h, followed by ethidium bromide staining. DNA images were obtained by a Bio-Rad imager (Bio-Rad, Hercules, CA, USA) and quantified with Image Lab software (Bio-Rad).
Sequence of Topo II alpha (P11388 whole entry): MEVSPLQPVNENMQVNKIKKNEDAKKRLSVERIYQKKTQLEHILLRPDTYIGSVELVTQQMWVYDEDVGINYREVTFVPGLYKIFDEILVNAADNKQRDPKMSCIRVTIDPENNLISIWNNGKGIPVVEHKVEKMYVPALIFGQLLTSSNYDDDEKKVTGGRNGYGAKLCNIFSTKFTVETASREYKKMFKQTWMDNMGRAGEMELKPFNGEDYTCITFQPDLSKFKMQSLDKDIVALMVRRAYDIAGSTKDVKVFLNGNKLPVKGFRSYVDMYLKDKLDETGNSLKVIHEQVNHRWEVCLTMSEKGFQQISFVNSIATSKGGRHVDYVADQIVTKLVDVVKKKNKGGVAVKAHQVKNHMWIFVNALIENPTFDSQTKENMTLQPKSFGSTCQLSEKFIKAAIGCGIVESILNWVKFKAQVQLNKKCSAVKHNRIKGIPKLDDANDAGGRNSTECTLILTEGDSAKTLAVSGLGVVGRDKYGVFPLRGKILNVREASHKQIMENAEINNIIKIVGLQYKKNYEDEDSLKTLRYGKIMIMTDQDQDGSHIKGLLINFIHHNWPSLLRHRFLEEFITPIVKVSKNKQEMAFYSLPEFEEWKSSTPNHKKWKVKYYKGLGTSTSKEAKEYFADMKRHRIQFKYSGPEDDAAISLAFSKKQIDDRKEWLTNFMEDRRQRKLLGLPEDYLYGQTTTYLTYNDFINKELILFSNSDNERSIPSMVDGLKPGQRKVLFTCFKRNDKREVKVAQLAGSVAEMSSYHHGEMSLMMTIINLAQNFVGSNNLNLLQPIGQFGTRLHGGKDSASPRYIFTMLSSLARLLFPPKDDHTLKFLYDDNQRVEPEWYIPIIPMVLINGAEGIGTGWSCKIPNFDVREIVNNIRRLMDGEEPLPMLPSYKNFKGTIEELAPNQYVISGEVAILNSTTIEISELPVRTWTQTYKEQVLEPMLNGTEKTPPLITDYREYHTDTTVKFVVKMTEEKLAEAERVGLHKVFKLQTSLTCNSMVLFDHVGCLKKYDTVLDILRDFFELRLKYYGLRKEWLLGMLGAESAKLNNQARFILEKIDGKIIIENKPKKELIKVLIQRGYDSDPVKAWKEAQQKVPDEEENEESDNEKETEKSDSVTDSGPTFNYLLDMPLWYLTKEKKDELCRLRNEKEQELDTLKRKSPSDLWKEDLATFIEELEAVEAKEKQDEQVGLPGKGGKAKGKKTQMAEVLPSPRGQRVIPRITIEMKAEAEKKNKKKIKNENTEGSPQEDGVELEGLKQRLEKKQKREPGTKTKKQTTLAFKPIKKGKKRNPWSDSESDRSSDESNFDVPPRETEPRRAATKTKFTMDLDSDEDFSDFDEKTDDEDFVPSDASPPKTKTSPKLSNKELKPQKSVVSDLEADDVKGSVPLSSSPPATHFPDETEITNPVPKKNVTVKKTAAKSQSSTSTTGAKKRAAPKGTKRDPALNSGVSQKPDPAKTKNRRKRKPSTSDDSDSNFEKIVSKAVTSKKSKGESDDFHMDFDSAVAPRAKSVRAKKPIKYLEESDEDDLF

In series [2] the test system is histone deacetylase 1 (HDAC1). Set-up: method as in PMID 33577659. The following applies: cited from earlier work.
For series [3], the system named is Chinese hamster V79 cells. The series is described as follows: Colony formation assay, radio- and chemosensitization. It is filed as cell-based. The settings on record: V79, gamma-rays, normoxic condition.
The test system of series [4] is poly (ADP-ribose) polymerase (PARP). Set-up: method as in PMID 37973295. The following applies: cited from earlier work.
Series [5] deals with CHO wild type, EM9, xrs5 and 51D1 cells. The series is described as follows: Sister chromatid exchange assay. It is filed as cell-based, Chinese hamster. As to the method:
CHO cells were synchronized into G1 phase using mitotic shake-off method. Cells in the G1 phase were irradiated, and 10 µM of BrdU was added. After 20 h, colcemid was added for 6 h to arrest cells in metaphase. Collected cells were treated with hypotonic KCl solution and fixed using methanol: acetic acid (3:1) as the standard method. Metaphase chromosome spread was prepared on glass slides and treated with 5 µg/mL of Hoechst 33258 solution for 15 min and exposed to UVB for 15 min and treated with 2X SSC solution at 80 °C for 15 min. Cells were stained with 5% Giemsa stain solution. At least 50 metaphase spreads were analyzed for SCE scoring per experiment.

The test system of series [6] is seven canine cancer cell lines (Abrams, D17, Moresco, CML-6M, Jones, CML-10C2, STSA-1). As to the kind of experiment: Colony formation assay, gamma-ray radiosensitization in normoxia or hypoxia. It is filed as cell-based. The following applies: 30 µM SQAP. The protocol: Irradiation was conducted by JL Shepard Mark I ^137Cs irradiator (nominal 6000 Ci) with dose rate of approximately 2.5 Gy per minute at room temperature. For hypoxia irradiation, cell cultures were placed in Aneropak Kenki system (Mitsubishi Gas Chemical, Tokyo, Japan) with oxygen meter to confirm pO2 below 0.1%. Cells were kept in hypoxia for 3 h before irradiation.

Series [7] has as its system HR activity in HeLa DR-GFP cells. As to the kind of experiment: DR-GFP DNA repair reporter assay. In kind it is cell-based, human. The following applies: 30 µM SQAP, p < 0.05. The protocol:
(§1) HR and NHEJ activities were assessed using the DR-GFP reporter system[25] and the EJ5-GFP reporter system, respectively. pDRGFP and pCBASceI were gifts from Dr. Maria Jasin (Addgene plasmid #26475 and #26477). pimEJ5GFP was a gift from Dr. Jeremy Stark (Addgene plasmid # 44026). The assays were performed as previously described. Briefly, HeLa cells expressing DR-GFP, or EJ5-GFP were transfected with a plasmid encoding an I-SceI endonuclease using FuGENE HD transfection reagent (Promega, Madison, WI, USA). HR and NHEJ frequencies were analyzed by counting GFP positive cells with a FACS Lyric flow cytometer (BD Biosciences, San Jose, CA, USA) at 48 h post-transfection. Drug treatment was performed 3 h after transfection, and medium was replaced with the drug until FACS analysis. Relative HR and NHEJ efficiencies were calculated by normalizing to control cell values. A total of 50,000 cells were counted for each condition.
For orientation: Reporter assays use an easily measured gene product as a stand-in for the process of interest.

Series [8] deals with seven canine cancer cell lines. The settings on record: all seven cell lines. As to the method: Sensitivity to radiation or chemical reagents was assessed through colony formation assays. After trypsinized single cells were plated to form 20–200 colonies per dish and then treated with SQAP for 3 h in normoxia or hypoxia, the cells were irradiated. For drug sensitivity study, trypsinized cells were plated and then treated with various dosage of testing agents. After seven days of incubation, colonies were fixed, stained and scored. Regression curves were drawn from survival fraction, and D10 values (doses to achieve 10% cell survival) were calculated by Prism 8 (GraphPad software, San Diego, CA, USA) from at least three independent experiments. Oxygen enhancement ratio (OER) and sensitization enhancement ratio (SER) values were calculated from D10 values. OER values were calculated from the D10 value in hypoxia divided by the D10 value in normoxic condition. SER values were calculated from the D10 value without SQAP divided by the D10 value with SQAP.

The conditions of series [9]: in vivo ref 34; cited from earlier work.
The subject of another series is CHO cells. As to the kind of experiment: Chromosome aberration assay. It is filed as cell-based, Chinese hamster. The settings on record: G1-irradiated CHO cells, 4 Gy, with SQAP. The protocol: Two hours after mitotic shake-off and replating, CHO cells in the G1 phase were irradiated. After 10 h, colcemid was added for 6 h to collect metaphase cells. Chromosome spreads were prepared as sister chromatid exchange assay and stained with a 5% Giemsa stain. At least 50 metaphase spreads were scored in three independent experiments.

The test system of series [10] is NHEJ activity in HeLa EJ5-GFP cells. The series is described as follows: EJ5-GFP DNA repair reporter assay. The settings on record: 30 µM SQAP, p < 0.05. It is filed as cell-based, human. As to the method: as §1
The subject of series [11] is dogs and cats with cancer. The settings on record: dogs and cats with cancer receiving radiation therapy ref 8, 9; cited from earlier work.
Series [12] has as its system poly (ADP-ribose) glycohydrolase (PARG). Also noted: method as in PMID 37973295. The following applies: cited from earlier work.

Read-outs that look alike come from different tables or passages of the source.

Broadly, the IC50 is the point on the concentration scale where inhibition reaches its midpoint.

With `CCCCCCCCCCCCCCCCCC(=O)OCCCO[C@H]1O[C@H](CS(=O)(=O)O)[C@@H](O)[C@H](O)[C@H]1O` [SQAP, Alpha-sulfoquinovosylacyl-1,3-propanediol], the radiosensitization entry in series [1] (V79, SQAP pretreatment alone) was “did not enhance radiation sensitivity”; in series [1] (V79, continuous SQAP treatment before and after irradiation, normoxic and hypoxic), “Radiosensitization was observed”. Besides, 9 µM corresponded to half-maximal inhibition on Topo II alpha (IC50). Besides, the HDAC1 enzymatic inhibition entry in series [2] is on record as “does not inhibit”. Also, the “sensitization enhancement ratio (SER)” value in series [3] was 1.3. Further, the PARP inhibition result in series [4] is given as “inhibitory effect”. For the same molecule, the “spontaneous sister chromatid exchange formation” value in series [5] (51D1 (rad51d mutant, HR deficient), non toxic SQAP concentrations) is listed as “no reduction”; in series [5] (CHO wild type, 5 to 20 µM SQAP, significant from 10 µM), “reduced”; in [5] (EM9 (XRCC1 mutant), 5 to 20 µM SQAP, significant from 10 µM) it was “reduced”; in series [5] (xrs5 (Ku80 mutant), 5 to 20 µM SQAP, significant from 10 µM) it was “reduced”. Besides, the “changes in OER values with and without SQAP treatment” value in series [6] is reported as “not observed”. Further, the “radiosensitization to gamma-ray exposure” value in series [6] (both normoxic and hypoxia conditions) is “induced radiosensitization”. For the same molecule, in series [7], the HR activity result is given as “significantly reduced”. Further, the “cytotoxicity of continuous exposure of SQAP (clonogenic survival)” value is given as “tolerance” in series [8] (30 µM SQAP) and “minimal cell viability” in series [8] (60 µM SQAP). Further, the “clearance from normal tissues and persistence in tumors” value in series [9] is reported as “rapidly cleared from normal tissues but persists in tumors for several hours”. The chromosome-type aberrations result in the series on CHO cells is listed as “approximately 2.4”. Moreover, the NHEJ activity entry in series [10] is given as “significantly reduced”. Moreover, the adverse systemic events result in [11] is listed as “not detected”. Moreover, the PARG inhibition result in series [12] is on record as “inhibitory effect”.

(Values after paper PMC12644462, “A novel radiosensitizer α-sulfoquinovosyl-acylpropanediol (SQAP) inhibits DNA repair pathways and sensitize cells to cancer chemotherapeutic agents” (Scientific Reports, 2025).)
